Patent US11420935B2, “Bicyclic compounds” (Vivace Therapeutics, Inc., priority 2019, dated 2022)
pIC50: −log10 of the molar value.

System: 8×TBD luciferase reporter (YAP) in HEK293T cells
Experiment: YAP Reporter Assay (8×TBD firefly luciferase reporter)
Assay type: cell-based
Conditions: Homo sapiens, HEK-293T; HEK293T cells stably transfected with 8×TBD luciferase reporter and pRLTK; 24-hr incubation; firefly luciferase activity; read-out: Firefly Luciferase IC50
Procedure: HEK293T cells stably transfected with 8×TBD luciferase reporter and pRLTK in 384-well plates were treated with the test compounds, starting from 3 μM (final concentration in assay plate), 1:3 dilution, and 10 points in quadruplicates. Post 24-hr incubation with compounds at 37° C. and 5% CO2, cells were lysed and 8×TBD-driven firefly luciferase and control TK-driven renilla luciferase activities were measured using Promega Dual-Luciferase Reporter Assay System.
Reagents: The reagents used for this study are: DMEM: Invitrogen #11960077, Dual-Glo Luciferase Assay System: Promega-E2980, Puromycin Dihydrochloride: Invitrogen-A1113803, 384-well plate: PerkinElmer-6007480, L-GLUTAMINE: Invitrogen-25030164, Hygromycin B: Invitrogen-10687010, and Penicillin-Streptomycin: Merk-TMS-AB2-C
Media: The media used for this assay were: Culture Medium: DMEM+1 ug/mL puromycin+200 ug/mL hygromycin (with 10% FBS+1 mM L-glutamine); and Assay Medium: DMEM (with 10% FBS+1 mM L-glutamine+1×P/S).
Cell Plating: The appropriate media was warmed at 37° C. by water bath: Culture Medium, Assay Medium, 1*D-PBS, 0.05% trypsin-EDTA. The cells were trypsinized after removing all media, then washed with 1*sterile D-PBS and then with 2 ml 0.05% trypsin-EDTA. The cells were then incubated at RT for one minute. Then 10 ml/75 cm2 flask Assay Medium was added to each flask. Using a 10 ml pipette, the cells were then gently resuspended in the media, until the clumps completely disappeared. The cells were then transferred into 50 ml centrifuge tubes and were centrifuged at 800 rpm for 5 mins. The medium was removed and the cells were resuspended with Assay Medium. An aliquot of cells was used to count the cell density (cells/ml). The cell suspension was then diluted with Assay Medium to a concentration of 6×10^4 cells/ml. 50 ul cells suspension was then plated to 384-well plate (PerkinElmer-6007480), 3×10^3 cells/well and the cells were incubated in an incubator at 37° C., 5% CO2.
Compound Treatment: In the afternoon (incubation of the plate with 3-4 hrs), the test compounds were added by Echo, starting from 3 uM (final concentration in the assay plate), 1:3 dilution, 10 points, quadruplicates. The plate was placed at 37° C., 5% CO2 incubator for 24 hrs.
Detection: The Dual-Glo Luciferase Reagent was prepared by transferring the contents of one bottle of Dual-Glo Luciferase Buffer to one bottle of Dual-Glo Luciferase Substrate to create the Dual-Glo Luciferase Reagent. Mixing was performed by inversion until the substrate was thoroughly dissolved. After mixing, the reagent was aliquoted into 15 ml tubes. In the afternoon (24 hrs post compound treatment), the DMEM+medium in the 384 well plates were aspirated by Microplate Washer.
Measuring firefly luciferase activity: 20 ul Dual-Glo Luciferase Reagent was added to the 384-well plates. The plates were protected from light to prevent interference with the assay. The plates were shaken for 1 min followed centrifuging plates at 1000 rpm for 30 seconds. After waiting at least 10 minutes, the firefly luminescence was measured by Envision.
Measuring renilla luciferase activity: 20 ul Stop-Glo Reagent was added to the 384-well plates. The plates were shaken for 1 min and then centrifuged at 1000 rpm for 30 seconds. After waiting at least 10 minutes, the renilla luminescence was measured by Envision.
Compound IC50 and maximum inhibition on the firefly luciferase and renilla luciferase activities were reported separately.

SMILES	pIC50
C[C@@H](NC(=O)c1ccc2c(Oc3ccc(C(F)(F)F)cc3)cccc2c1)c1cccc(N)n1 [Compound 66, (R)—N-(1-(6-aminopyridin-2-yl)ethyl)-5-(4-(trifluoromethyl)phenoxy)-2-naphthamide]	> 7.00
CC(C)NC(=O)c1ccc2c(Oc3ccc(C(F)(F)F)cc3)ccnc2c1 [Compound 67, N-isopropyl-4-(4-(trifluoromethyl)phenoxy)quinoline-7-carboxamide]	6.00 to 7.00
C[C@@H](NC(=O)c1ccc2c(Oc3ccc(C(F)(F)F)cc3)cccc2c1)c1nccn1C [Compound 68, (R)—N-(1-(1-methyl-1H-imidazol-2-yl)ethyl)-5-(4-(trifluoromethyl)phenoxy)-2-naphthamide]	6.00 to 7.00
C[C@H](NC(=O)c1ccc2c(Oc3ccc(C(F)(F)F)cc3)cccc2c1)c1nccn1C [Compound 69, (S)—N-(1-(1-methyl-1H-imidazol-2-yl)ethyl)-5-(4-(trifluoromethyl)phenoxy)-2-naphthamide]	6.00 to 7.00
CC(C)NC(=O)c1ccc2c(Oc3ccc(C(F)(F)F)cc3)cccc2n1 [Compound 70, N-Isopropyl-5-(4-(trifluoromethyl)phenoxy)quinoline-2-carboxamide]	> 7.00
C[C@H](NC(=O)c1ccc2c(Oc3ccc(C(F)(F)F)cc3)cccc2c1)c1cc(N)ccn1 [Compound 71, (S)—N-(1-(4-aminopyridin-2-yl)ethyl)-5-(4-(trifluoromethyl)phenoxy)-2-naphthamide]	6.00 to 7.00
C[C@@H](NC(=O)c1ccc2c(Oc3ccc(C(F)(F)F)cc3)cccc2c1)c1cc(N)ccn1 [Compound 72, (R)—N-(1-(4-aminopyridin-2-yl)ethyl)-5-(4-(trifluoromethyl)phenoxy)-2-naphthamide]	> 7.00
C[C@H](NC(=O)c1ccc2c(Oc3ccc(C(F)(F)F)cc3)cccc2c1)c1cc(N(C)C)ccn1 [Compound 73, (S)—N-(1-(4-(dimethylamino)pyridin-2-yl)ethyl)-5-(4-(trifluoromethyl)phenoxy)-2-naphthamide]	6.00 to 7.00
C[C@@H](NC(=O)c1ccc2c(Oc3ccc(C(F)(F)F)cc3)cccc2c1)c1cc(N(C)C)ccn1 [Compound 74, (R)—N-(1-(4-(dimethylamino)pyridin-2-yl)ethyl)-5-(4-(trifluoromethyl)phenoxy)-2-naphthamide]	5.52 to 6.00
CC(NC(=O)c1ccc2c(Oc3ccc(C(F)(F)F)cc3)cccc2c1)c1cc(Br)ccn1 (stereo not drawn) [Compound 75, N-(1-(4-bromopyridin-2-yl)ethyl)-5-(4-(trifluoromethyl)phenoxy)-2-naphthamide]	> 7.00
C[C@H](NC(=O)c1ccc2c(Oc3ccc(C(F)(F)F)cc3)cccc2c1)c1cccc(N(C)C)n1 [Compound 76, (S)—N-(1-(6-(dimethylamino)pyridin-2-yl)ethyl)-5-(4-(trifluoromethyl)phenoxy)-2-naphthamide]	6.00 to 7.00
C[C@@H](NC(=O)c1ccc2c(Oc3ccc(C(F)(F)F)cc3)cccc2c1)c1cccc(N(C)C)n1 [Compound 77, (R)—N-(1-(6-(dimethylamino)pyridin-2-yl)ethyl)-5-(4-(trifluoromethyl)phenoxy)-2-naphthamide]	> 7.00
C[C@H](NC(=O)c1ccc2c(Oc3ccc(C(F)(F)F)cc3)cccc2c1)c1cccnc1N [Compound 78, (S)—N-(1-(2-aminopyridin-3-yl)ethyl)-5-(4-(trifluoromethyl)phenoxy)-2-naphthamide]	> 7.00
C[C@@H](NC(=O)c1ccc2c(Oc3ccc(C(F)(F)F)cc3)cccc2c1)c1cccnc1N [Compound 79, (R)—N-(1-(2-aminopyridin-3-yl)ethyl)-5-(4-(trifluoromethyl)phenoxy)-2-naphthamide]	5.52 to 6.00
O=C(NC(CO)Cc1ccccn1)c1ccc2c(Oc3ccc(C(F)(F)F)cc3)cccc2c1 (stereo not drawn) [Compound 80, N-[1-(hydroxymethyl)-2-(2-pyridyl)ethyl]-5-[4-(trifluoromethyl)phenoxy]naphthalene-2-carboxamide]	> 7.00
CC(C)NC(=O)c1cnc2c(Oc3ccc(C(F)(F)F)cc3)cc(F)c(F)c2c1 [Compound 81, 5,6-difluoro-N-isopropyl-8-(4-(trifluoromethyl)phenoxy)quinoline-3-carboxamide]	> 7.00
C[C@H](NC(=O)c1ccc2c(Oc3ccc(C(F)(F)F)cc3)cccc2c1)c1ccccc1Cl [Compound 83, (S)—N-(1-(2-chlorophenyl)ethyl)-5-(4-(trifluoromethyl)phenoxy)-2-naphthamide]	> 7.00
CC(C)NC(=O)c1ccc2c(Oc3ccc(C(F)(F)F)cc3F)cccc2c1 [Compound 84, 5-(2-fluoro-4-(trifluoromethyl)phenoxy)-N-isopropyl-2-naphthamide]	> 7.00
CC(C)NC(=O)c1ccc2c(Oc3ccc(C(F)(F)F)cc3Cl)cccc2c1 [Compound 85, 5-(2-chloro-4-(trifluoromethyl)phenoxy)-N-isopropyl-2-naphthamide]	> 7.00
N#CNC(=O)c1ccc2c(Oc3ccc(C(F)(F)F)cc3)cccc2c1 [Compound 86, N-cyano-5-[4-(trifluoromethyl)phenoxy]naphthalene-2-carboxamide]	6.00 to 7.00
C[C@@H](NC(=O)c1ccc2c(Oc3ccc(C(F)(F)F)cc3)cccc2c1)c1cccc2cn[nH]c12 [Compound 87, N-[(1R)-1-(1H-indazol-7-yl)ethyl]-5-[4-(trifluoromethyl)phenoxy]naphthalene-2-carboxamide]	> 7.00
CC#C[C@H](C)NC(=O)c1ccc2c(Oc3ccc(C(F)(F)F)cc3)cccc2c1 [Compound 89, N-[(1S)-1-methylbut-2-ynyl]-5-[4-(trifluoromethyl)phenoxy]naphthalene-2-carboxamide]	> 7.00
CC#C[C@@H](C)NC(=O)c1ccc2c(Oc3ccc(C(F)(F)F)cc3)cccc2c1 [Compound 90, N-[(1R)-1-methylbut-2-ynyl]-5-[4-(trifluoromethyl)phenoxy]naphthalene-2-carboxamide]	> 7.00
C[C@@H](NC(=O)c1ccc2c(Oc3ccc(C(F)(F)F)cc3)cccc2c1)c1cn(C)cn1 [Compound 91, N-[(1R)-1-(1-methylimidazol-4-yl)ethyl]-5-[4-(trifluoromethyl)phenoxy]naphthalene-2-carboxamide]	> 7.00
C[C@H](NC(=O)c1ccc2c(Oc3ccc(C(F)(F)F)cc3)cccc2c1)c1cn(C)cn1 [Compound 92, N-[(1S)-1-(1-methylimidazol-4-yl)ethyl]-5-[4-(trifluoromethyl)phenoxy]naphthalene-2-carboxamide]	6.00 to 7.00
CC(C)NC(=O)c1ccc2c(Oc3ccc(C(F)(F)F)cc3)cncc2c1 [Compound 93, N-isopropyl-4-(4-(trifluoromethyl)phenoxy)isoquinoline-7-carboxamide]	> 7.00
O=C(NC(CCO)c1ccccn1)c1ccc2c(Oc3ccc(C(F)(F)F)cc3)cccc2c1 (stereo not drawn) [Compound 94, N-(3-hydroxy-1-(pyridin-2-yl)propyl)-5-(4-(trifluoromethyl)phenoxy)-2-naphthamide]	> 7.00
C[C@H](NC(=O)c1ccc2c(Oc3ccc(C(F)(F)F)cc3)cccc2c1)C1CNC1 [Compound 95, N-[(1S)-1-(azetidin-3-yl)ethyl]-5-[4-(trifluoromethyl)phenoxy]naphthalene-2-carboxamide]	> 7.00
C[C@@H](NC(=O)c1ccc2c(Oc3ccc(C(F)(F)F)cc3)cccc2c1)C1CNC1 [Compound 96, N-[(1R)-1-(azetidin-3-yl)ethyl]-5-[4-(trifluoromethyl)phenoxy]naphthalene-2-carboxamide]	> 7.00
C[C@H](NC(=O)c1cc2cccc(Oc3ccc(C(F)(F)F)cc3)c2s1)c1ccccn1 [Compound 97, (S)—N-(1-(pyridin-2-yl)ethyl)-7-(4-(trifluoromethyl)phenoxy)benzothiophene-2-carboxamide]	> 7.00
